Measurements taken from article PMC7587962, “Evaluation of Cytotoxicity and α-Glucosidase Inhibitory Activity of Amide and Polyamino-Derivatives of Lupane Triterpenoids” (Molecules, 2020).
Read-outs that look alike come from different tables or passages of the source.

Columns and labels:
CCRF-CEM = assay: NCI-60 SRB screen: leukemia CCRF-CEM; type: cell-based; settings: Homo sapiens, 48 h, single dose 10 µM, read-out: Percentage Cell Growth
K-562 = assay: NCI-60 SRB screen: leukemia K-562; type: cell-based, human; settings: K-562; single dose 10 µM
MOLT-4 = assay: NCI-60 SRB screen: leukemia MOLT-4; type: cell-based; settings: Homo sapiens, 48 h; MOLT-4; single dose 10 µM; read-out: Percentage Cell Growth
RPMI-8226 = assay: NCI-60 SRB screen: leukemia RPMI-8226; type: cell-based; settings: Homo sapiens, 48 h; RPMI-8226; single dose 10 µM; read-out: Percentage Cell Growth
SR = assay: NCI-60 SRB screen: leukemia SR; type: cell-based; settings: Homo sapiens, 48 h, single dose 10 µM, read-out: Percentage Cell Growth
NCI-H460 = assay: NCI-60 SRB screen: non-small cell lung cancer NCI-H460; type: cell-based; settings: Homo sapiens, 48 h; NCI-H460; single dose 10 µM; read-out: Percentage Cell Growth
COLO 205 = assay: NCI-60 SRB screen: colon cancer COLO 205; type: cell-based, human; settings: COLO 205; single dose 10 µM
HCT-116 = assay: NCI-60 SRB screen: colon cancer HCT-116; type: cell-based; settings: Homo sapiens, 48 h; HCT-116; single dose 10 µM; read-out: Percentage Cell Growth
HT29 = assay: NCI-60 SRB screen: colon cancer HT29; type: cell-based; settings: Homo sapiens, HT-29, 48 h; HT29; single dose 10 µM; read-out: Percentage Cell Growth
KM12 = assay: NCI-60 SRB screen: colon cancer KM12; type: cell-based, human; settings: KM12; single dose 10 µM
SW-620 = assay: NCI-60 SRB screen: colon cancer SW-620; type: cell-based; settings: Homo sapiens, 48 h; SW-620; single dose 10 µM; read-out: Percentage Cell Growth
U251 = assay: NCI-60 SRB screen: CNS cancer U251; type: cell-based; settings: Homo sapiens, U-251, 48 h; U251; single dose 10 µM; read-out: Percentage Cell Growth
LOX IMVI = assay: NCI-60 SRB screen: melanoma LOX IMVI; type: cell-based, human; settings: single dose 10 µM
IGROV1 = assay: NCI-60 SRB screen: ovarian cancer IGROV1; type: cell-based, human; settings: IGROV1; single dose 10 µM
OVCAR-8 = assay: NCI-60 SRB screen: ovarian cancer OVCAR-8; type: cell-based, human; settings: OVCAR-8; single dose 10 µM
MCF7 = assay: NCI-60 SRB screen: breast cancer MCF7; type: cell-based; settings: Homo sapiens, 48 h; MCF7; single dose 10 µM; read-out: Percentage Cell Growth
[1] = test system: 60 human tumor cell lines; assay: cells
HL-60(TB) = assay: NCI-60 SRB screen: leukemia HL-60(TB); type: cell-based; settings: Homo sapiens, 48 h; HL-60(TB); single dose 10 µM; read-out: Percentage Cell Growth
HOP-92 = assay: NCI-60 SRB screen: non-small cell lung cancer HOP-92; type: cell-based, human; settings: HOP-92; single dose 10 µM
SF-295 = assay: NCI-60 SRB screen: CNS cancer SF-295; type: cell-based, human; settings: SF-295; single dose 10 µM
SNB-75 = assay: NCI-60 SRB screen: CNS cancer SNB-75; type: cell-based, human; settings: SNB-75; single dose 10 µM
SK-MEL-5 = assay: NCI-60 SRB screen: melanoma SK-MEL-5; type: cell-based, human; settings: SK-MEL-5; single dose 10 µM
ACHN = assay: NCI-60 SRB screen: renal cancer ACHN; type: cell-based, human; settings: single dose 10 µM
CAKI-1 = assay: NCI-60 SRB screen: renal cancer CAKI-1; type: cell-based, human; settings: CAKI-1; single dose 10 µM
UO-31 = assay: NCI-60 SRB screen: renal cancer UO-31; type: cell-based, human; settings: UO-31; single dose 10 µM
PC-3 = assay: NCI-60 SRB screen: prostate cancer PC-3; type: cell-based, human; settings: PC-3; single dose 10 µM
MDA-MB-231/ATCC = assay: NCI-60 SRB screen: breast cancer MDA-MB-231/ATCC; type: cell-based; settings: Homo sapiens, 48 h; MDA-MB-231/ATCC; single dose 10 µM; read-out: Percentage Cell Growth
T-47D = assay: NCI-60 SRB screen: breast cancer T-47D; type: cell-based, human; settings: T-47D; single dose 10 µM
Yeast α-Glucosidase = assay: Yeast α-glucosidase activity assay; type: biochemical, S. cerevisiae; settings: pH 6.8, 37 °C, p-nitrophenyl-α-D-glucopyranoside 1 mM; read-out: Yeast α-Glucosidase, IC50 ± SE
Description: (§1) Taken together, these considerations prompted us to evaluate a series of lupanes with amide function or polyamine chain 11, 12, 16, 18, and 22–26 for α-glucosidase inhibition. Initially, they were screened against α-glucosidase of S. cerevisiae as an accessible and high-throughput model. Confirmatory experiments were performed on isolated rough endoplasmic reticulum vesicles from rat liver, which contain neutral α-glucosidases I and II in a membrane-bound form.
In a 96-well flat transparent plate, the 0.12 U/mL enzyme solution (EC 3.2.1.20, expressed in S. cerevisiae, Sigma #G0660, St. Louis, MO, USA) was incubated with test compounds in 67 mM PBS (pH 6.8) at 37 °C for 5 min. Then, p-nitrophenyl-α-D-glucopyranoside (Sigma #N1377, St. Louis, MO, USA) was added to 1 mM final concentration and an increase in absorbance was recorded for 15 min at 405 nm wavelength with Infinite M200 PRO microplate reader (Tecan, Austria). Test compounds were dissolved in DMSO and diluted to the desired concentration in 67 mM PBS (pH 6.8) supplemented with 0.01% Tween 80 to avoid aggregation. Final DMSO concentration was <0.25% in sample wells, and it was also introduced in control and blank wells. […] Due to the absence of normal distribution of data, a Mann–Whitney U-test was used to determine statistical significance versus enzyme control using GraphPad Prism 8.0.1.

[2] = test system: Rat Liver ER Neutral α-Glucosidase; assay: Endoplasmic reticulum α-glucosidase activity assay; type: biochemical
From the text: as §1, with “Betulinic acid inhibits yeast α-glucosidase activity and interferes with N-linked glycan modifications to cell-surface intercellular adhesion molecule-1 (ICAM-1) in human lung carcinoma A549 cells in a similar manner to castanospermine, an inhibitor of endoplasmic reticulum α-glucosidases I and II [66]. […] Taken” for “Taken”
Endoplasmic reticulum was isolated from hepatocytes of decapitated male Sprague-Dawley rats, which were starved overnight and sacrificed the next morning. All experiments were approved by Volgograd regional ethic committee. The whole procedure was performed at 4 °C. In brief, a fresh tissue sample from an animal was washed twice with 10 mL of PBS to remove residual blood. The tissue was placed on a paper towel in order to absorb excess liquid and blood clots, if present. It was cut further into small pieces (1.5–2 cm) and washed once more. […] Homogenate was centrifuged at 1000× g for 10 min at 4 °C. After removal of the floating lipid layer by aspiration, supernatant was separated and centrifuged at 12,000× g for 15 min. at 4 °C. The supernatant fraction, which is the post mitochondrial fraction (PMF), was used for isolation of rough endoplasmic reticulum (RER) enriched microsomes by precipitation with 8 mM CaCl2 added dropwise. The final concentration of CaCl2 was 7 mM. Resulting sample was centrifuged at 8000 g for 10 min. at 4 °C. The supernatant was discarded, and the pellet was suspended in isotonic extraction buffer (0.3 mL of buffer for each g of original tissue). The suspension was homogenized completely to afford RER enriched microsomes. In a 96-well flat transparent plate 25 µL of the isolated RER microsomes were incubated with 50 µL of test compounds in 67 mM PBS (pH 6.8) at 37 °C for 10 min. Then, p-nitrophenyl-α-D-glucopyranoside (Sigma #N1377, St. Louis, MO, USA) was added to 1 mM final concentration and increase in absorbance was recorded for 42 min at 405 nm wavelength with Infinite M200 PRO microplate reader (Tecan, Austria). Concentration of RER microsomes was adjusted to achieve an increase in optical density of ~0.2 in control samples after 30 min. of incubation. Test compounds were prepared as described above for the yeast α-glucosidase assay.

## C=C(C)[C@@H]1CC[C@]2(C(=O)NCCCCCCN(CCCN)CCCN)CC[C@]3(C)[C@H](CC[C@@H]4[C@@]5(C)CC[C@H](OCCCN)C(C)(C)[C@@H]5CC[C@]43C)[C@@H]12 [Compound 19]
CCRF-CEM
  activity at 10 µM: 11.8%
K-562
  Percentage Cell Growth: 1.52%
MOLT-4
  activity at 10 µM: 10.1%
RPMI-8226
  activity at 10 µM: 29.3%
SR
  activity at 10 µM: 18.4%
NCI-H460
  activity at 10 µM: -16.2%
COLO 205
  Percentage Cell Growth: 18.88%
HCT-116
  activity at 10 µM: 12.6%
HT29
  activity at 10 µM: 4.21%
KM12
  Percentage Cell Growth: 31.48%
SW-620
  activity at 10 µM: 7.33%
U251
  activity at 10 µM: -39.5%
LOX IMVI
  Percentage Cell Growth: 5.71%
IGROV1
  Percentage Cell Growth: 27.33%
OVCAR-8
  Percentage Cell Growth: −28.27%
MCF7
  activity at 10 µM: 14.5%
[1]; read-out: Mean Growth, %
  activity at 10 µM: 63%
[1]; read-out: Range of Growth, %
  activity at 10 µM: -39.5 to 141%

## C=C(C)[C@@H]1CC[C@]2(C(=O)NCCN(CCNC(=O)OC(C)(C)C)C(=O)OC(C)(C)C)CC[C@]3(C)[C@H](CC[C@@H]4[C@@]5(C)CCC(=O)C(C)(C)[C@@H]5CC[C@]43C)[C@@H]12 [Compound 14]
CCRF-CEM
  activity at 10 µM: 14.9%
HL-60(TB)
  activity at 10 µM: -14.3%
MOLT-4
  activity at 10 µM: 11.7%
RPMI-8226
  activity at 10 µM: 22.2%
HOP-92
  Percentage Cell Growth: 8.07%
NCI-H460
  activity at 10 µM: 20.6%
HCT-116
  activity at 10 µM: 17.5%
HT29
  activity at 10 µM: 23.7%
SW-620
  activity at 10 µM: 28.8%
SF-295
  Percentage Cell Growth: 31.97%
SNB-75
  Percentage Cell Growth: 23.86%
U251
  activity at 10 µM: 27.9%
SK-MEL-5
  Percentage Cell Growth: −8.44%
ACHN
  Percentage Cell Growth: 23.51%
CAKI-1
  Percentage Cell Growth: 18.57%
UO-31
  Percentage Cell Growth: 17.41%
PC-3
  Percentage Cell Growth: 19.12%
MCF7
  activity at 10 µM: 22.2%
MDA-MB-231/ATCC
  activity at 10 µM: -33.8%
T-47D
  Percentage Cell Growth: 28.02%
[1]; read-out: Mean Growth, %
  activity at 10 µM: 36.6%

## C=C(C)[C@@H]1CC[C@]2(C(=O)NCCCNCCCN)CC[C@]3(C)[C@H](CC[C@@H]4[C@@]5(C)CCC(=O)C(C)(C)[C@@H]5CC[C@]43C)[C@@H]12 [Compound 16]
Yeast α-Glucosidase
  IC50: > 100 µM
[2]; 10 μM
  Rat Liver ER Neutral α-Glucosidase Inhibition, m ± SD: 9.05 ± 6.68%
[2]; 100 μM
  Rat Liver ER Neutral α-Glucosidase Inhibition, m ± SD: 14.94 ± 6.31%
[1]; read-out: Mean Growth, %
  activity at 10 µM: 101%
[1]; read-out: Range of Growth, %
  activity at 10 µM: 59.3 to 141%

## C=C(C)[C@@H]1CC[C@]2(CO)CC[C@]3(C)[C@H](CC[C@@H]4[C@@]5(C)CCCNC(C)(C)[C@@H]5CC[C@]43C)[C@@H]12 [Compound 23]
Yeast α-Glucosidase
  IC50: > 100 µM
[2]; 10 μM
  Rat Liver ER Neutral α-Glucosidase Inhibition, m ± SD: −1.34 ± 2.22%
[2]; 100 μM
  Rat Liver ER Neutral α-Glucosidase Inhibition, m ± SD: 5.85 ± 8.03%

## C=C(C)[C@@H]1CC[C@]2(C=NCCCNCCCCN)CC[C@]3(C)[C@H](CC[C@@H]4[C@@]5(C)CCC(=O)C(C)(C)[C@@H]5CC[C@]43C)[C@@H]12 [Compound 22]
Yeast α-Glucosidase
  IC50: > 100 µM
[2]; 10 μM
  Rat Liver ER Neutral α-Glucosidase Inhibition, m ± SD: 31.42 ± 7.96 %
[2]; 100 μM
  Rat Liver ER Neutral α-Glucosidase Inhibition, m ± SD: 58.52 ± 8.21 %
[1]; read-out: Mean Growth, %
  activity at 10 µM: 102%
[1]; read-out: Range of Growth, %
  activity at 10 µM: 80.5 to 123%

## C=C(C)[C@@H]1CC[C@]2(C=NCCCNCCCCN)CC[C@]3(C)[C@H](CC[C@@H]4[C@@]5(C)CCCNC(C)(C)[C@@H]5CC[C@]43C)[C@@H]12 [Compound 24]
SR
  activity at 10 µM: 21.7%
Yeast α-Glucosidase
  IC50: > 100 µM
[2]; 10 μM
  Rat Liver ER Neutral α-Glucosidase Inhibition, m ± SD: 26.96 ± 2.33 %
[2]; 100 μM
  Rat Liver ER Neutral α-Glucosidase Inhibition, m ± SD: 54.62 ± 15.38 %
[1]; read-out: Mean Growth, %
  activity at 10 µM: 93.6%
[1]; read-out: Range of Growth, %
  activity at 10 µM: 21.7 to 132%

## C=C(C)[C@@H]1CC[C@]2(COCCCN)CC[C@]3(C)[C@H](CC[C@@H]4[C@@]5(C)CC[C@H](OCCCN)C(C)(C)[C@@H]5CC[C@]43C)[C@@H]12 [Compound 18]
Yeast α-Glucosidase
  IC50: 5.7 ± 1.09 µM
[2]; 10 μM
  Rat Liver ER Neutral α-Glucosidase Inhibition, m ± SD: 56.64 ± 4.24 %
[2]; 100 μM
  Rat Liver ER Neutral α-Glucosidase Inhibition, m ± SD: 36.51 ± 14.90 %
